Measured values from the supplement of paper PMC5412046.
Where a name gives a salt, the structure may show the parent alone.

Legend:
SB.msgc-1 = test: AC50 for growth inhibition (viability) (log10 M); higher = less potent; conditions: SB.msgc-1 (sporadic gastric cancer)
In short: (§1)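 Hereditary or sporadic patient-derived gastric cancer cells (500 cells in 5 μL medium per 1536 well) received 23 nL compound in DMSO by pintool. Dosing was 11 threefold dilutions starting at a final 46 μM. After 48 h, CellTiter-Glo was added for 30 min at room temperature and luminescence read on a ViewLux. Log half-maximal activity concentration came from a four-parameter fit of DMSO-normalised viability, keeping only high-quality curve classes.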

SB.mhdgc-1 = test: as above; conditions: SB.mhdgc-1 (hereditary c.1380delA CDH1 gastric cancer)
In short: as §1

O=C(NCCCNc1nc(Nc2cccc(NC(=O)N3CCCC3)c2)ncc1I)c1cccs1 [BX-795]
AC50 for growth inhibition (log10 M) (SB.msgc-1): -4.88 | AC50 for growth inhibition (log10 M) (SB.mhdgc-1): -4.83

CC/1=C(\O)C(=O)\C=C2/C1=C/C=C3\[C@@]2(C)CC[C@@]4(C)[C@@H]5C[C@@](C)(CC[C@]5(C)CC[C@]34C)C(O)=O [Tripterin]
AC50 for growth inhibition (log10 M) (SB.msgc-1): -5.78 | AC50 for growth inhibition (log10 M) (SB.mhdgc-1): -5.58

CCN(CC)Cc1ccc2cc(COC(=O)Nc3ccc(C(=O)NO)cc3)ccc2c1 [Givinostat hydrochloride]
AC50 for growth inhibition (log10 M) (SB.msgc-1): -6.03 | AC50 for growth inhibition (log10 M) (SB.mhdgc-1): -5.38

C[C@H]1[C@@H](C(=O)C[C@H]2O[C@@H]3O[C@]4(C)CC[C@H]5[C@H](C)CC[C@@H]([C@H]2C)[C@@]35OO4)O[C@@H]2O[C@]3(C)CC[C@H]4[C@H](C)CC[C@@H]1[C@@]24OO3 [BTM-2C-dimer ketone]
AC50 for growth inhibition (log10 M) (SB.msgc-1): -6.38 | AC50 for growth inhibition (log10 M) (SB.mhdgc-1): -6.38
